The nature of data set [1]: Cytotoxicity against human Huh-7 cells assessed as reduction in cell viability measured after 7 days by Celltiter -Glo assay. The format is toxicity, cell-based. Particulars: time 7 day.
The nature of data set [2]: Inhibition of HCoV-OC43 main protease using Dbcyl-YGSTLQAGLRKM-(Edans) as substrate preincubated for 30 mins followed by substrate addition and measured after 60 mins by fluorescence based Spectramax M2e microplate reader based analysis. More on the design: species or system Human coronavirus OC43.
Data set [3] can be described thus: Inhibition of HCoV-229E main protease using Dbcyl-YGSTLQAGLRKM-(Edans) as substrate preincubated for 30 mins followed by substrate addition and measured after 60 mins by fluorescence based Spectramax M2e microplate reader based analysis. More on the design: species or system Human coronavirus 229E.
Data set [4] has as its target Replicase polyprotein 1a (Severe acute respiratory syndrome-related coronavirus, UniProt P0C6U8). The data set is described as follows: Inhibition of SARS-CoV-1 main protease using DabcylKTSAVLQSGFRKM-(Edan) as substrate preincubated for 30 mins followed by substrate addition and measured after 60 mins by fluorescence based Spectramax M2e microplate reader based analysis.

Data set [5] can be described thus: Inhibition of HCoV-HKU1 main protease using Dbcyl-YGSTLQAGLRKM-(Edans) as substrate preincubated for 30 mins followed by substrate addition and measured after 60 mins by fluorescence based Spectramax M2e microplate reader based analysis. Also noted: species or system Human coronavirus HKU1.
Data set [6] addresses Cathepsin B (Homo sapiens, UniProt P07858). The data set is described as follows: Inhibition of human Cathepsin B.
The nature of data set [7]: Cytotoxicity against human MRC5 cells assessed as reduction in cell viability measured after 7 days by Celltiter -Glo assay. Particulars: time 7 day. It is filed as toxicity, cell-based.
Data set [8] in a line: Cytotoxicity against human HeLa cells expressing ACE2 assessed as cell viability measured after 24 hrs by Cell-titer glo assay. The format is toxicity, cell-based.
The nature of data set [9]: Inhibition of HCoV-NL63 main protease using Dabcyl-YNSTLQSGLKKM-(Edans) as substrate preincubated for 30 mins followed by substrate addition and measured after 60 mins by fluorescence based Spectramax M2e microplate reader based analysis. Also noted: species or system Human coronavirus NL63.
Data set [10] concerns Human coronavirus OC43. Briefly: Antiviral activity against HCoV-OC43 infected in human Huh-7 cells assessed as reduction in cytopathic effect pretreated with cells followed by viral infection and measured after 7 days. Particulars: Betacoronavirus 1, Huh-7. It is filed as functional, organism-based.
Data set [11] has as its system Human coronavirus 229E. The data set is described as follows: microbe, parasite or virus in culture. Particulars: MRC5.
Data set [12] has as its target T1, Replicase polyprotein 1ab (Severe acute respiratory syndrome coronavirus 2, UniProt P0DTD1). Briefly: Inhibition of C-terminal 6-his tagged SARS-CoV-2 main protease expressed in Escherichia coli BL-21-Gold(DE3) cells using DabcylKTSAVLQSGFRKM-(Edan) as substrate preincubated for 30 mins followed by substrate addition and measured after 60 mins by fluorescence based Spectramax M2e microplate reader based analysis.

A short description of data set [13]: Inhibition of MERS main protease using Dbcyl-YGSTLQAGLRKM-(Edans) as substrate preincubated for 30 mins followed by substrate addition and measured after 60 mins by fluorescence based Spectramax M2e microplate reader based analysis. Also noted: species or system Middle East respiratory syndrome-related coronavirus.
In data set [14] the target is T1, Replicase polyprotein 1ab. The data set is described as follows: Inhibition of SARS-CoV-2 main protease.

A value given as a limit tells only on which side of the number the result lay.

On to `CC1(C)[C@@H]2[C@@H](C(=O)N[C@H](C=O)C[C@@H]3CCNC3=O)N(C(=O)C3(c4cccc(Cl)c4)CC3)C[C@@H]21`, for which the cytotoxic concentration (CC50) at 168 h in data set [1] and in data set [7] was above 50000 nM throughout. Further, the IC50 (commonly the concentration that gives 50% inhibition) in [2] was determined as 20 nM; in [3], 24 nM; in data set [4], 14 nM; in data set [5], 8 nM; in [6], 30000 nM; in data set [9] it was 37 nM. The half-inhibitory concentration (IC50) turned out to be 11 nM in [12] and 100 nM in data set [13]. Also, in data set [8], the half-maximal cytotoxic concentration (CC50) (commonly the concentration that lowers cell viability or growth by half) at 24 h was above 40000 nM. For the same compound, the EC50 (in general, the concentration at which the effect is half-maximal) in [10] was determined as 120 nM; in data set [11], 70 nM.

In the case of `O=C[C@H](C[C@@H]1CNCC1=O)NC(=O)[C@H](Cc1cccc(F)c1)NC(=O)c1cc2ccccc2[nH]1`, the IC50 in data set [14] was found to be 25 nM.

Turning to `CC(C)c1ccc(F)c2[nH]c(C(=O)N3C[C@H]4[C@@H]([C@H]3C(=O)N[C@H](C=O)C[C@@H]3CCNC3=O)C4(C)C)cc12`, the CC50 at 168 h in [1] and in [7] was above 50000 nM in each case. Also, the half-inhibitory concentration (IC50) in data set [2] is 35 nM; in data set [3], 26 nM; in data set [4] it was 30 nM; in [5], 16 nM; in data set [6], above 50000 nM; in data set [9], 40 nM. In addition, the half-maximal inhibitory concentration (IC50) in data set [12] was determined as 22 nM; in data set [13], 210 nM. In addition, the CC50 at 24 h in data set [8] was above 40000 nM. Also, the EC50 in data set [10] was found to be 290 nM; in [11], 60 nM.

Source of the values: ChEMBL document CHEMBL5550108, “Exploiting high-energy hydration sites for the discovery of potent peptide aldehyde inhibitors of the SARS-CoV-2 main protease with cellular antiviral activity” (Bioorg Med Chem, 2024).
